{"source": "patent US10960018B2", "about": "“Methods and compounds for stimulating read-through of premature termination codons” (The UAB Research Foundation, priority 2016, dated 2021)", "key": {"FRT G542X cells": {"system": "FRT G542X cells", "assay": "Transepithelial chloride conductance (TECC) assay in FRT G542X cells", "type": "cell-based, Rat", "conditions": "48 hours; for forskolin-stimulated CFTR conductance vs vehicle control: 1 μM to 30 μM, P<0.05; for FRT G542X TECC Gt Mean ± SE: forskolin-stimulated", "experimental": "Stably transfected FRT cells as described herein cells were seeded onto Costar 24-well […] permeable supports at a density of ˜2×10^6 cells/filter and maintained at 37° C. with 5% CO2. Transepithelial resistance was assessed using an epithelial voltmeter to ensure the formation of tight monolayers, as defined by resistance >6 kcm^2. During initial evaluation of agents, cells were treated with compounds (10 μM), vehicle control (0.3% DMSO), or positive control (250 μg/mL G418) for 48 hours before transepithelial conductance (Gt) was assessed; subsequent studies used other concentrations of compounds. Measurements were taken at baseline, after the addition of 20 μM forskolin (FSK, a cAMP agonist that stimulates CFTR activity) and 10 μM CFTRInh-172 (a CFTR-specific inhibitor).\nIn the TECC assay, FRT G542X cells were treated with a single dose (10 μM) of each compound. FRT G542X cells were incubated for 48 hours with the compounds prior or vehicle control (0.3% DMSO). During the assay the baseline conductance (Gt) was initially determined prior to the acute addition of forskolin (20 μM) and VX-770 (10 μM) to stimulate CFTR activity; the CFTR inhibitor, CFTRInh-172 (10 μM), was added to inhibit CFTR activity at the end of the assay. In these experiments, an increase in CFTR conductance indicates the compounds stimulated read-through of the PTC in the constructs tested and that the CFTR was functional.\nTo prioritize which of the 48 read-through-positive compounds identified would be most efficacious in augmenting PTC read-through and restoring protein function, the TECC assay was repeated (in triplicate) using FRT G542X cells and FRT cells without CFTR (parental cells). Compounds (10 μM) or vehicle control (0.3% DMSO) were incubated for 48 hours with the cells. During the assay the baseline conductance (Gt) was initially determined prior to the acute addition of forskolin (20 μM) and VX-770 (10 μM) to stimulate CFTR activity; the CFTR inhibitor, CFTRInh-172 (10 μM), was added to inhibit CFTR activity at the end of the assay. G418 (250 μg/ml) was used as a positive control. In this assay, an increase in CFTR conductance indicates the compound stimulated read-through of the PTC in the constructs tested and that the CFTR was functional. The 48 compounds tested are provided in the Table 1 below (with the numerical designations corresponding to those shown in FIG. 4).\nA series of functional assays was performed to evaluate the efficacy of these lead compounds in greater detail. Using FRT G542X cells, the optimal dose of each compound in augmenting chloride conductance (FIG. 5A) was determined. FRT G542X cells were incubated with compound (1 μM to 30 μM), G418 (250 μg/mL) or vehicle control (0.3% DMSO) for 48 hours. The conductance assay was conducted as described in Example 2 above. In this assay, an increase in CFTR conductance indicates the compounds stimulated read-through of the PTC in the constructs tested and that the CFTR was functional."}, "[1]": {"system": "mouse embryonic fibroblasts (MEF)", "conditions": "48 h"}, "α-L-iduronidase": {"system": "α-L-iduronidase", "assay": "α-L-iduronidase activity assay in MEF cells from homozygous Idua-W402X mice", "type": "cell-based, Mouse", "conditions": "48 hours; escin 0.25 to 160 μM, doxorubicin 5 to 160 μM", "experimental": "α-L-iduronidase activity was determined as follows. Cell extracts were obtained from mouse embryonic fibroblast (MEF) cells homozygous for the W402X mutation and immortalized using the SV40 Large T antigen using a lentiviral expression system. α-L-iduronidase activity was determined as described by Wang et al. (Wang, D. et al., 2012; Mol Genet Metab 105: 116-125). Briefly, 4-methyl-umbelliferone iduronide (FMU) was added to the cell lysate as a substrate at low pH (for example, 130 mM sodium formate buffer, pH 3.5). The reaction was incubated for 72 h at 37° C. after which the reaction was quenched by the addition of high pH buffer (for example, glycine-NaOH buffer, pH 10.8). The fluorescence of the cleaved free FMU molecule was immediately measured at 365 nm excitation and 450 nm emission using a fluorometer and the amount of active iduronidase was expressed as nmol FMU released/mg protein/hour.\nAfter 48 hours, cell lysates were obtained and the activity of MEF α-L-iduronidase was determined. Enhancement of PTC read-through by the compounds of the present disclosure was determined by an increase in α-L-iduronidase activity."}, "FRT Y122X^HRP cells": {"system": "FRT Y122X^HRP cells", "assay": "HRP CFTR expression assay, Y122X", "type": "cell-based, Rat", "conditions": "48 hours; escin 10 μM, VX-809 3 μM", "experimental": "To measure cell surface expression of CFTR, FRT cells expressing the fusion protein of G542X CFTR and HRP were treated with 10 μM of lead compounds for 48 hours at 37° C. and 5% CO2. Holding DMSO concentration at 0.3%, FRT cells were washed 4 times in PBS supplemented with 1 mM MgCl2 and 0.1 mM CaCl2 and then incubated with the HRP substrate (Fisher, #PI-34096, 15 μl/well) at room temperature for 10 minutes. The luminescent HRP signal was analyzed via a Synergy NEO microplate reader (BioTek Instruments).\nThe effect of the read-through stimulating compounds of the present disclosure in combination with the CFTR corrector VX-809 was further examined in FRT cells with the G542X, Y122X and W1282X mutations. Enhancement of PTC read-through by the compounds of the present disclosure was determined by an increase in CFTR conductance (FIGS. 13A-13C) or an increase in CFTR protein expression at the cell surface (FIGS. 14A-14C). CFTR conductance also indicated the CFTR was functional as a result of the read-through of the PTC."}, "HBE ΔF508/ΔF508 cells": {"system": "HBE ΔF508/ΔF508 cells", "assay": "Ussing chamber Isc in primary HBE ΔF508/ΔF508 cells", "type": "cell-based, Human", "conditions": "escin 10 μM, VX-809 6 μM; 48 hours", "experimental": "Short circuit current (Isc) was measured under voltage clamp conditions as previously described (Rowe S M, et al., J Mol Med (Berl); 89: 1149-1161; 2011). Briefly, primary HBE cells as described herein were seeded on Costar […] permeable supports (5.3×10^5 cells/filter, 6.5 mm diameter; Bethesda, Md.) after coating with fibroblast-conditioned media (Liu X, et al., Am J Pathol; 180: 599-607, 2012). Well-differentiated cells were treated with compounds for 48 hours and Isc measurements were obtained by using an epithelial voltage clamp apparatus in Ussing chambers (Physiologic Instruments). After measuring the baseline Isc, amiloride (100 μM) was added to block the epithelial sodium channel activity followed by the addition of CFTR agonists (20 μM FSK and 10 μM VX-770). CFTRInh-172 (10 μM) was added at the end of experiment to block CFTR-dependent Isc. DMSO (0.1%) and G418 (250 μg/mL) served as vehicle and positive controls, respectively.\nIndividual assays were performed as described herein."}}, "note": "Marks after values point to notes of the source that are not given here."}
{"smiles": "C[C@@H]1C[C@@H]([C@H](O)CC2CC(=O)NC(=O)C2)C(=O)[C@@H](C)C1", "note": "[Cyclohexamide, CYCLOHEXIMIDE]", "values": [{"measurement": "forskolin-stimulated CFTR conductance vs vehicle control", "setting": "FRT G542X cells", "result": "significantly higher"}, {"measurement": "FRT G542X TECC Gt Mean ± SE", "setting": "FRT G542X cells; 3 μM (footnote b)", "result": "0.13 ± 0.06**^,b mS/cm^2"}]}
{"smiles": "COc1cccc2c1C(=O)c1c(O)c3c(c(O)c1C2=O)C[C@@](O)(C(=O)CO)C[C@@H]3O[C@H]1C[C@H](N)[C@H](O)[C@H](C)O1", "note": "[Doxorubicin, DOXORUBICIN]", "values": [{"measurement": "decrease of total protein concentrations", "setting": "[1]", "result": "about 40%"}, {"measurement": "α-L-iduronidase activity as compared to vehicle control", "setting": "α-L-iduronidase", "result": "dose-dependent increase"}, {"measurement": "FRT G542X TECC Gt Mean ± SE", "setting": "FRT G542X cells; 10 μM", "result": "0.11 ± 0.01", "unit": "mS/cm^2"}]}
{"smiles": "CCCOc1ccc2nc(NC(=O)OC)[nH]c2c1", "note": "[Oxibendazole, OXIBENDAZOLE]", "values": [{"measurement": "forskolin-stimulated CFTR conductance vs vehicle control", "setting": "FRT G542X cells", "result": "significantly higher"}, {"measurement": "FRT G542X TECC Gt Mean ± SE", "setting": "FRT G542X cells; 30 μM (footnote c)", "result": "0.16 ± 0.005****^,c mS/cm^2"}]}
{"smiles": "Cc1ccc(NC(=O)C2(c3ccc4c(c3)OC(F)(F)O4)CC2)nc1-c1cccc(C(=O)O)c1", "note": "[VX-809]", "values": [{"measurement": "CFTR protein expression at the cell surface", "setting": "FRT Y122X^HRP cells", "result": "significant stimulatory effects"}, {"measurement": "CFTR stimulation (conductance) in the presence of forskolin and GP-5", "setting": "FRT G542X cells; escin 10 μM, VX-809 3 μM, GP-5 10 μM, C1+C2 10 μM", "result": "non-significant effects"}, {"measurement": "forskolin/VX-770 dependent Isc", "setting": "HBE ΔF508/ΔF508 cells", "result": "significant increase"}]}
